Measured values taken from patent publication US4345984A, “Novel prostaglandin analogues and process for making same” (The Procter & Gamble Company, priority 1981, dated 1982).
Like-named read-outs stand apart in the source and are kept apart here.

System: stomach mucosa
Experiment: cytoprotective activity in rats (ethanol-induced stomach mucosa lesions)
Assay type: in vivo, Sprague-Dawley rats
Conditions: for response vs control in vivo at 5 mg/kg / inhibition in vivo at 5 mg/kg: Rattus norvegicus, 1 h; for response vs control in vivo at 5 mg/kg / inhibition in vivo at 5 mg/kg / % Protection: 5 mg per kg oral, half hour before absolute ethanol 10 ml per kg oral; for response vs control in vivo at 5 mg/kg: average lesion length as % of control animals; for inhibition in vivo at 5 mg/kg: lesions vs control, read-out: LESIONS % reduction; for cytoprotective activity (in words): comparison of enantiomers and racemate, Table III; for % Protection: optically pure compounds of Example XIX
Procedure: A number of the 7-oxa prostanoic acid derivatives has been tested for cytoprotective activity in rats. In this test, Sprague-Dawley rats are fasted for 24 hours prior to the pretreatment. The pretreatment is oral administration of a 5 mg per kg body weight dose of the prostanoid in 2.5 ml of a vehicle consisting of Tween 80 (0.75%) and the balance water. The control animals are given 2.5 ml of the vehicle, without prostanoid. A half hour after the pretreatment, absolute ethanol is administered orally to the animals, in a dose of 10 ml per kg body weight. One hour later the animals are sacrificed, their stomachs dissected out, opened along the greater curvature and the mucose examined for lesions. The average lesion length is expressed as percentage of the average lesion length found in the stomach mucosa of control animals.
Importantly, this test measures the active cytoprotective properties of the prostanoids, independent of the gastric secretion inhibition that these compounds may or may not show. The test is discussed more fully by Robert et al., Gastroenterology 77 (1979) 433, incorporated herein by reference.
methyl-7-oxa-9-oxo-Prostanoate derivatives were tested for cytoprotective properties. The compounds differed with respect to the nature of the C13 -C14 bond (triple, cis or trans double, or single), the substituent(s) at the 15-position and at the 16-position. […]
The optically pure compounds of Example XIX were tested for cytoprotective activity. The following results were obtained (Table III).

[1] = methyl-7-oxa-9-alpha-hydroxy prost-13,14-ynoate derivatives
[2] = 7-oxa-9-oxo-methyl prostanoate derivatives

Row | SMILES | response vs control in vivo at 5 mg/kg [2] | inhibition in vivo at 5 mg/kg [2] | other results
1 | CCCCC(C)(C)C(O)C#C[C@H]1CC[C@H](O)[C@@H]1OCCCCCC(=O)OC (relative stereo) |  |  | response vs control in vivo at 5 mg/kg [1]: 83%; inhibition in vivo at 5 mg/kg [1]: 17%
2 | CCCCCC(=O)C#C[C@H]1CC[C@H](O)[C@@H]1OCCCCCC(=O)O (relative stereo) |  |  | response vs control in vivo at 5 mg/kg [1]: 7%; inhibition in vivo at 5 mg/kg [1]: 93%
3 | CCCCCC(O)/C=C\[C@H]1CCC(=O)[C@@H]1OCCCCCC(=O)OC (relative stereo) [cis (R,S)OH H,H (7-oxa-9-oxo), methyl-15-hydroxy-7-oxa-9-oxo-cis-prost-13-14-enoate] | 31% | 69% | 
4 | CCCCCC(C)(O)/C=C\[C@H]1CCC(=O)[C@@H]1OCCCCCC(=O)OC (relative stereo) [cis (R,S)OH,Me H,H (7-oxa-9-oxo)] | 71% | 29% | 
5 | CCCCCC(=O)/C=C\[C@H]1CCC(=O)[C@@H]1OCCCCCC(=O)OC (relative stereo) [cis oxo H,H (7-oxa-9-oxo), methyl-9,15-dioxo-7-oxa-cis-prost-13,14-enoate] | 113% | -13% | 
6 | CCCCCC(O)C#C[C@H]1CC[C@H](O)[C@@H]1OCCCCCC(=O)OC (relative stereo) [methyl-9-alpha-hydroxy-15-hydroxy-7-oxa-Prost-13,14-ynoate] |  |  | response vs control in vivo at 5 mg/kg [1]: 93%; inhibition in vivo at 5 mg/kg [1]: 7%
7 | CCCCCC(C)(O)CC[C@H]1CCC(=O)[C@@H]1OCCCCCC(=O)OC (relative stereo) [single (R,S)OH,Me H,H (7-oxa-9-oxo)] | 67% | 33% | 
8 | CCCCCC(=O)CC[C@H]1CCC(=O)[C@@H]1OCCCCCC(=O)OC (relative stereo) [single oxo H,H (7-oxa-9-oxo)] | 128% | -28% | 
9 | CCCCCC(C)(O)/C=C/[C@H]1CCC(=O)[C@@H]1OCCCCCC(=O)OC (relative stereo) [trans (R,S)OH,Me H,H (7-oxa-9-oxo)] | 54% | 46% | 
10 | CCCCCC(=O)/C=C/[C@H]1CCC(=O)[C@@H]1OCCCCCC(=O)OC (relative stereo) [trans oxo H,H (7-oxa-9-oxo)] | 118% | -18% | 
11 | CCCCCC(O)C#C[C@H]1CCC(=O)[C@@H]1OCCCCCC(=O)OC (relative stereo) [triple (R,S)OH H,H (7-oxa-9-oxo), methyl 15-hydroxy-7-oxa-9-oxo-prost-13,14-ynoate] | 31% | 69% | 
12 | CCCCCC(C)(O)C#C[C@H]1CCC(=O)[C@@H]1OCCCCCC(=O)OC (relative stereo) [triple (R,S)OH,Me H,H (7-oxa-9-oxo)] | 82% | 18% | 
13 | CCCCCCC#C[C@H]1CC[C@H](O)[C@@H]1OCCCCCC(=O)OC (relative stereo) [triple H,H H,H (7-oxa-9-alpha-hydroxy)] |  |  | response vs control in vivo at 5 mg/kg [1]: 90%; inhibition in vivo at 5 mg/kg [1]: 10%
14 | CCCCCCC#C[C@H]1CCC(=O)[C@@H]1OCCCCCC(=O)OC (relative stereo) [triple H,H H,H (7-oxa-9-oxo)] | 81% | 19% | 
15 | CCCCCC(=O)C#C[C@H]1CC[C@H](O)[C@@H]1OCCCCCC(=O)OC (relative stereo) [triple oxo H,H (7-oxa-9-alpha-hydroxy), methyl 9-alpha-hydroxy-7-oxa-15-oxo-prost-13,14-ynoate] |  |  | response vs control in vivo at 5 mg/kg [1]: 20%; inhibition in vivo at 5 mg/kg [1]: 80%
16 | CCCCCC(=O)C#C[C@H]1CCC(=O)[C@@H]1OCCCCCC(=O)OC (relative stereo) [triple oxo H,H (7-oxa-9-oxo), methyl-9,15-dioxo-7-oxa-prost-13,14-ynoate] | 4% | 96% | cytoprotective activity (in words): the same
17 | CCCCC(C)(C)C(=O)C#C[C@H]1CCC(=O)[C@@H]1OCCCCCC(=O)OC (relative stereo) [triple oxo Me,Me (7-oxa-9-oxo)] | 16% | 84% | 
18 | CCCCC[C@H](O)C#CC1CCC(=O)C1OCCCCCC(=O)OC (stereo partly drawn) [(18), methyl-(S)-15-hydroxy-7-oxa-9-oxo-prost-13,14-ynoate] |  |  | cytoprotective activity (in words): high cytoprotective activity; % Protection: 96%
19 | CCCCC[C@@H](O)C#CC1CCC(=O)C1OCCCCCC(=O)OC (stereo partly drawn) [(19), methyl-(R)-15-hydroxy-7-oxa-9-oxo-prost-13,14-ynoate] |  |  | % Protection: -34%
